These are literature values, as cited in patent US8679533B2, “Pramipexole once-daily dosage form” (Pharmacia Corporation, priority 2002, dated 2014).

The conditions of the series: dihydrochloride salt, 20-25° C.

As to `CCCN[C@H]1CCc2nc(N)sc2C1` [pramipexole, (S)-2-amino-4,5,6,7-tetrahydro-6-(propylamino)-benzothiazole], the solubility in water entry was “about 200 mg/ml”.
